Reference: ChEMBL document CHEMBL1201862, “PubChem BioAssay data set” (2004)
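Each compound was tested at five concentrations against cells in 96-well plates for 48 hours. GI50 is the concentration that inhibits growth by half.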 Activity calls are given as the source filed them. Rule as the data show it: active = GI50 up to about 1.1 µM and inactive = higher.

Columns and labels:
Assay in all cases: inhibition of tumour cell growth, NCI panel, 48 h
A549 = system: A549
ACHN = system: ACHN
EKVX = system: EKVX
HCT-15 = system: HCT-15
HT-29 = system: HT-29
Hs-578T = system: Hs-578T
KM12 = system: KM12
MCF7 = system: MCF7
MOLT-4 = system: MOLT-4
NCI-H226 = system: NCI-H226
NCI-H522 = system: NCI-H522
RPMI-8226 = system: RPMI-8226
SF-268 = system: SF-268
SF-295 = system: SF-295
SK-MEL-28 = system: SK-MEL-28
SK-OV-3 = system: SK-OV-3
SNB-19 = system: SNB-19
SNB-75 = system: SNB-75
UACC-257 = system: UACC-257
Malme-3M = system: Malme-3M

Row | SMILES | GI50 (A549) | GI50 (ACHN) | GI50 (EKVX) | GI50 (HCT-15) [µM] | GI50 (HT-29) | GI50 (Hs-578T) | GI50 (KM12) | GI50 (MCF7) | GI50 (MOLT-4) | GI50 (NCI-H226) | GI50 (NCI-H522) | GI50 (RPMI-8226) | GI50 (SF-268) | GI50 (SF-295) | GI50 (SK-MEL-28) | GI50 (SK-OV-3) | GI50 (SNB-19) | GI50 (SNB-75) | GI50 (UACC-257) | GI50 (Malme-3M)
1 | N#CCCN(CCC#N)c1ccc(C(=N/c2ccc(F)cc2)/N=N/c2ccc(Cl)cc2)cc1 | > 100 µM (inactive) | > 100 µM (inactive) | > 100 µM (inactive) | > 100 | > 100 µM (inactive) | > 100 µM (inactive) | > 100 µM (inactive) | > 100 µM (inactive) | > 100 µM (inactive) | > 100 µM (inactive) | > 100 µM (inactive) | > 100 µM (inactive) | > 100 µM (inactive) | > 100 µM (inactive) | > 100 µM (inactive) | > 100 µM (inactive) | > 100 µM (inactive) | > 100 µM (inactive) | > 100 µM (inactive) | 
2 | N#CCN(CC#N)C1CC=CCC1N(CC#N)CC#N (stereo not given) | > 100 µM (inactive) | > 100 µM (inactive) | > 100 µM (inactive) | > 100 | > 100 µM (inactive) | > 100 µM (inactive) | > 100 µM (inactive) | > 100 µM (inactive) | > 100 µM (inactive) | > 100 µM (inactive) | > 100 µM (inactive) | > 100 µM (inactive) | > 100 µM (inactive) | > 100 µM (inactive) |  | > 100 µM (inactive) | > 100 µM (inactive) |  | > 100 µM (inactive) | > 100 µM (inactive)
3 | N#Cc1c(-c2ccc([N+](=O)[O-])cc2)c2c([nH]c1=O)-c1ccccc1CCC2 | 42.8 µM (inactive) | 37.5 µM (inactive) | > 100 µM (inactive) | 31.3 | 55.3 µM (inactive) | 75 µM (inactive) | 40.7 µM (inactive) | 33.4 µM (inactive) | 39.4 µM (inactive) | 44 µM (inactive) | 41.5 µM (inactive) | 30.8 µM (inactive) | 68.7 µM (inactive) | 37.2 µM (inactive) | 47.9 µM (inactive) | > 100 µM (inactive) | 70.1 µM (inactive) |  | 80 µM (inactive) | 56.6 µM (inactive)
4 | CCSc1c(C)c2c(n(Cc3ccc(OC)cc3)c1=O)Cc1ccccc1C2 | 21.9 µM (inactive) | 10.3 µM (inactive) | 21.4 µM (inactive) | 4.52 | 28.2 µM (inactive) | 24.5 µM (inactive) | 25.1 µM (inactive) | 24.7 µM (inactive) | 2.53 µM (inactive) | 36.5 µM (inactive) | 11.9 µM (inactive) |  | 11.8 µM (inactive) | 32.1 µM (inactive) | 92.7 µM (inactive) | 39.5 µM (inactive) | 18.2 µM (inactive) | 21.9 µM (inactive) | 13.3 µM (inactive) | 10.8 µM (inactive)
